Here are results for one compound from US20240216356A1, “TASTE MASKED COMPOSTIONS OF 2,4,6-TRIFLUORO-N-[6-(1-METHYL-PIPERIDINE-4-CARBONYL)-PYRIDIN-2-YL]-BENZAMIDE HEMISUCCINATE, AND ORALLY DISENTEGRATING TABLET COMPRISING THE SAME” (priority 2021, published 2024).

In brackets after ≈: the same amount, converted by molar mass.

The nature of data set [1]: Solubility of lasmiditan over the pH range of the oral cavity. Type of data set: physicochemical. As to the method: Lasmiditan is highly soluble (dissolves readily in the mouth) but extremely bitter in taste, and has other negative sensory attributes, that preclude conventional ODT development. […] The efficacious dose is from 25 to 200 mg depending on patient weight or other factors. […] Extreme bitterness, mouth numbing, and other negative sensory attributes are present and persist for 30 minutes.

For data set [2] the following is noted: current marketed immediate release tablets; cited from earlier work.

The term solubility denotes the concentration that dissolves in the medium under given conditions. Read a high solubility as a readily soluble substance.

For the compound `CN1CCC(C(=O)c2cccc(NC(=O)c3c(F)cc(F)cc3F)n2)CC1` [Lasmiditan, 2,4,6-trifluoro-N-[6-(1-methyl-piperidin-4-ylcarbonyl)-pyridin-2-yl]-benzamide], the solubility in data set [1] (pH 5, aqueous buffer) came out at 35 mg/mL (≈ 92.7 mM); in data set [1] (pH 6.8, aqueous buffer), 9.8 mg/mL (≈ 26 mM). For the same compound, in data set [2], the “onset of action (time to symptom relief)” value is recorded as “about 2 hours”.
